Experiments:
[1] = assay type: in vitro ADME, pork
Procedure: A study comprising applying conjugated FITC-Dextran with 4000 Daltons molecular weight as a surrogate of water-soluble drugs on ex vivo pork skin samples was performed. Thermoelectric coolers and other cooling devices can be used as well. In these experiments […] was used as the cryogenic agent. Exposure time can range from minutes to millisecond exposures, depending on the type of coolant used. […] For applying suction, any method of creating suction or positive pressure on the skin can be used. For example, the Isolaze device from […] can be used to apply a suction of 380 mm Hg. To investigate this, a study was initiated consisting of applying conjugated FITC-Dextran with 4000 Daltons molecular weight as a surrogate of water-soluble drugs on ex vivo pork skin samples. After exposing skin samples for 30 min to 3 hours after topical application, a cross-sections of skin was cut ( 20 microns thick) to observe directly the Dextran penetration via the intensity of the FITC fluorescence with the aid of a confocal fluorescent microscope.

[2] = Case clinical study: penetration after topical application with cryo-cracking versus simple rubbing; assay type: in vivo; details: 3 hrs after topical application using cryo-cracking procedure
From the text: This study also included FITC with Dextran of 4 kDa and 70 kDA.

## Dylight
[1]
  transdermal delivery of drug surrogate using the cryo-cracking process: delivered

## O=C1OC2(c3ccc(O)cc3Oc3cc(O)ccc32)c2ccc(N=C=S)cc21 [FITC]
[1]
  transdermal delivery of drug surrogate using the cryo-cracking process: effectively delivered
[2]
  penetration into the stratum corneum and epidermis down the microcracks, compared to penetration after simple rubbing: much more significant

Source: patent US20110178456A1, “ASSISTING TRANSDERMAL DRUG DELIVERY BY MEANS OF TISSUE FREEZING, VACUUM PRESSURE AND PHOTOHEATING PROCEDURES” (THE REGENTS OF THE UNIVERSITY OF CALIFORNIA, priority 2009, published 2011)
